Test results reported in patent US11124507B2, “1H-pyrrolopyridine compound, N-oxide thereof or salt thereof, agricultural and horticultural insecticide comprising the compound, and method for using the insecticide” (Nihon Nohyaku Co., Ltd., priority 2016, dated 2021).
Where a name gives a salt, the structure may show the parent alone. Read-outs that look alike come from different tables or passages of the source.

Columns and labels:
Type in all cases: in vivo
Myzus persicae = test: Test for control efficacy on Myzus persicae (foliar application, Chinese cabbage); settings: 144 h, foliar application to potted Chinese cabbage plants, 6 days after application, read-out: control efficacy (control rate), activity level
Text: Test for control efficacy on Myzus persicae Chinese cabbage plants were planted in plastic pots (diameter: 8 cm, height: 8 cm), Green peach aphids (Myzus persicae) were propagated on the plants, and the number of surviving Green peach aphids in each pot was counted. The condensed heterocyclic compounds represented by the general formula (1) of the present invention or salts thereof were separately dispersed in water and diluted to 500 ppm. The agrochemical dispersions were applied to the foliage of the potted Chinese cabbage plants. After the plants were air-dried, the pots were kept in a greenhouse. At 6 days after the foliar application, the number of surviving Green peach aphids on the Chinese cabbage plant in each pot was counted, the control rate was calculated according to the formula shown below, and the control efficacy was evaluated according to the criteria shown below. Control rate=100−{(T×Ca)/(Ta×C)}×100 [Math. 1] Ta: the number of survivors before the foliar application in a treatment plot T: the number of survivors after the foliar application in a treatment plot Ca: the number of survivors before the foliar application in a non-treatment plot C: the number of survivors after the foliar application in a non-treatment plot Criteria A: the control rate is 100%. B: the control rate is 90 to 99%. C: the control rate is 80 to 89%. D: the control rate is 50 to 79%.

Laodelphax striatellus = test: Insecticidal test on Laodelphax striatellus (rice seedling dip); settings: 192 h, read-out: insecticidal efficacy (corrected mortality rate), activity level
Text: Insecticidal Test on Laodelphax striatellus
The condensed heterocyclic compounds represented by the general formula (1) of the present invention or salts thereof were separately dispersed in water and diluted to 500 ppm. Rice plant seedlings (variety: Nihonbare) were dipped in the agrochemical dispersions for 30 seconds. After air-dried, each seedling was put into a separate glass test tube and inoculated with ten 3rd-instar larvae of Laodelphax striatellus, and then the glass test tubes were capped with cotton plugs. At 8 days after the inoculation, the numbers of surviving larvae and dead larvae were counted, the corrected mortality rate was calculated according to the formula shown below, and the insecticidal efficacy was evaluated according to the criteria shown below. Corrected mortality rate (%)=100×(Survival rate in a non-treatment plot−Survival rate in a treatment plot)/Survival rate in a non-treatment plot [Math. 2] Corrected Mortality Rate A: the corrected mortality rate is 100%.

Plutella xylostella = test: Insecticidal test on Plutella xylostella (dip of Chinese cabbage seedlings with laid eggs); settings: 144 h
Description: Insecticidal Test on Plutella xylostella
Adults of Plutella xylostella were released onto Chinese cabbage seedlings and allowed to lay eggs thereon. […] After air-dried, the seedlings were kept in a thermostatic chamber at 25° C. […] This test was conducted in triplicate using 10 adults of Plutella xylostella per plot. Corrected mortality rate (%)=100×(Number of hatched larvae in a non-treatment plot−Number of hatched larvae in a treatment plot)/Number of hatched larvae in a non-treatment plot [Math. 3]

[1] = 500 ppm, rice seedlings dipped 30 seconds, ten 3rd-instar larvae, 8 days after inoculation
[2] = 500 ppm, seedlings with laid eggs dipped about 30 seconds, 25° C., 6 days after dip treatment, criteria of Test Example 2, read-out: insecticidal efficacy (corrected mortality rate), activity level
[3] = read-out: insecticidal efficacy (corrected mortality rate), activity level

CCS(=O)(=O)c1cc2cc(Cl)ccc2nc1-c1[nH]c2cc(C(F)(F)F)cnc2c1F [Compound 1-3, 2-(6-chloro-3-ethylsulfonyl-quinolin-2-yl)-3-fluoro-6-trifluoromethyl-1H-pyrrolo[3,2-b]pyridine]
100%: pest or weed control at 500 ppm (Myzus persicae) | mortality at 500 ppm (Laodelphax striatellus; [1]) | mortality at 500 ppm (Plutella xylostella; [2])

CCOC(=O)Nc1ccc2cc(S(=O)(=O)CC)c(-c3[nH]c4cc(C(F)(F)F)cnc4c3F)nc2c1 [Compound 1-13, 2-(7-ethoxycarbonylamino-3-ethylsulfonyl-quinolin-2-yl)-3-fluoro-6-trifluoromethyl-1H-pyrrolo[3,2-b]pyridine]
100%: pest or weed control at 500 ppm (Myzus persicae) | mortality at 500 ppm (Laodelphax striatellus) | mortality at 500 ppm (Plutella xylostella; [3])

CCS(=O)(=O)c1cc2cc(Cl)ccc2nc1-c1[nH]c2cc(C(F)(F)F)cnc2c1Cl [Compound 1-44, 3-chloro-2-(6-chloro-3-ethylsulfonyl-quinolin-2-yl)-6-trifluoromethyl-1H-pyrrolo[3,2-b]pyridine]
100%: pest or weed control at 500 ppm (Myzus persicae) | mortality at 500 ppm (Laodelphax striatellus; [1]) | mortality at 500 ppm (Plutella xylostella; [2])

CCS(=O)(=O)c1cc2cc(Cl)ccc2nc1-c1c(F)c2ncc(C(F)(F)F)cc2n1C(C)=O [Compound 2-1, 1-acetyl-2-(6-chloro-3-ethylsulfonyl-quinolin-2-yl)-3-fluoro-6-trifluoromethyl-1H-pyrrolo[3,2-b]pyridine]
100%: pest or weed control at 500 ppm (Myzus persicae) | mortality at 500 ppm (Laodelphax striatellus; [1]) | mortality at 500 ppm (Plutella xylostella; [2])

CCSc1cc2cc(Cl)ccc2nc1-c1cc2ncc(C(F)(F)F)cc2n1C(=O)OC(C)(C)C [Compound 2-41, 1-(tert-butoxycarbonyl)-2-(6-chloro-3-ethylthio-quinolin-2-yl)-6-trifluoromethyl-1H-pyrrolo[3,2-b]pyridine]
100%: pest or weed control at 500 ppm (Myzus persicae) | mortality at 500 ppm (Laodelphax striatellus; [1]) | mortality at 500 ppm (Plutella xylostella; [2])

CCS(=O)(=O)c1cc2cc(Cl)ccc2nc1-c1cc2ncc(C(F)(F)F)cc2n1C(=O)OC(C)(C)C [Compound 2-42, 1-(tert-butoxycarbonyl)-2-(6-chloro-3-ethylsulfonyl-quinolin-2-yl)-6-trifluoromethyl-1H-pyrrolo[3,2-b]pyridine]
100%: pest or weed control at 500 ppm (Myzus persicae) | mortality at 500 ppm (Laodelphax striatellus; [1]) | mortality at 500 ppm (Plutella xylostella; [2])

CCOC(=O)Nc1ccc2cc(S(=O)(=O)CC)c(-c3c(F)c4ncc(C(F)(F)F)cc4n3C(=O)OC(C)(C)C)nc2c1 [Compound 2-49, 1-(tert-butoxycarbonyl)-2-(7-ethoxycarbonylamino-3-ethylsulfonyl-quinolin-2-yl)-3-fluoro-6-trifluoromethyl-1H-pyrrolo[3,2-b]pyridine]
100%: pest or weed control at 500 ppm (Myzus persicae) | mortality at 500 ppm (Laodelphax striatellus) | mortality at 500 ppm (Plutella xylostella; [3])

CCS(=O)(=O)c1cc2ccc(Br)cc2nc1-c1c(Cl)c2ncc(C(F)(F)F)cc2n1C(=O)OC(C)(C)C [Compound 2-61, 1-(tert-butoxycarbonyl)-2-(7-bromo-3-ethylsulfonyl-quinolin-2-yl)-3-chloro-6-trifluoromethyl-1H-pyrrolo[3,2-b]pyridine]
100%: pest or weed control at 500 ppm (Myzus persicae) | mortality at 500 ppm (Laodelphax striatellus; [1]) | mortality at 500 ppm (Plutella xylostella; [2])

CCS(=O)(=O)c1cc2ccc(Br)cc2nc1-c1c(Cl)c2ncc(C(F)(F)F)cc2n1COC [Compound 2-65, 1-methoxymethyl-2-(7-bromo-3-ethylsulfonyl-quinolin-2-yl)-3-chloro-6-trifluoromethyl-1H-pyrrolo[3,2-b]pyridine]
100%: pest or weed control at 500 ppm (Myzus persicae) | mortality at 500 ppm (Laodelphax striatellus; [1]) | mortality at 500 ppm (Plutella xylostella; [2])

CCS(=O)(=O)c1cc2ccc(C=O)cc2nc1-c1c(Cl)c2ncc(C(F)(F)F)cc2n1C(=O)OC(C)(C)C [Compound 2-97, 1-(tert-butoxycarbonyl)-2-(7-formyl-3-ethylsulfonyl-quinolin-2-yl)-3-chloro-6-trifluoromethyl-1H-pyrrolo[3,2-b]pyridine]
100%: pest or weed control at 500 ppm (Myzus persicae) | mortality at 500 ppm (Laodelphax striatellus; [1]) | mortality at 500 ppm (Plutella xylostella; [2])

C=Cc1ccc2cc(S(=O)(=O)CC)c(-c3c(Cl)c4ncc(C(F)(F)F)cc4n3C(=O)OC(C)(C)C)nc2c1 [Compound 2-98, 1-(tert-butoxycarbonyl)-2-(7-vinyl-3-ethylsulfonyl-quinolin-2-yl)-3-chloro-6-trifluoromethyl-1H-pyrrolo[3,2-b]pyridine]
100%: pest or weed control at 500 ppm (Myzus persicae) | mortality at 500 ppm (Laodelphax striatellus; [1]) | mortality at 500 ppm (Plutella xylostella; [2])

CCS(=O)(=O)c1cc2cc(Cl)ccc2nc1-c1cc2ncc(C(F)(F)F)cc2[nH]1 [Compound 4-3, 2-(6-chloro-3-ethylsulfonyl-quinolin-2-yl)-6-trifluoromethyl-1H-pyrrolo[3,2-b]pyridine trifluoroacetate]
100%: pest or weed control at 500 ppm (Myzus persicae) | mortality at 500 ppm (Laodelphax striatellus; [1]) | mortality at 500 ppm (Plutella xylostella; [2])
